pKi: −log10 of the molar value. Converted amounts (≈) assume the structure as drawn. Like-named read-outs stand apart in the source and are kept apart here.
What was measured:
Stability in PBS, pH 7.4 = format: physicochemical; details: for half-life: pH 7.4, read-out: Stability PBS, pH 7.4 t1/2 (converted); for Stability PBS, pH 7.4 % left after 6 hrs: pH 7.4, after 6 hrs
[1] = Stability in Mueller Hinton Broth; format: physicochemical; details: for half-life: read-out: Stability Mueller Hinton Broth t1/2 (converted)
[2] = Stability in Mouse Plasma; format: in vitro ADME; details: for half-life: read-out: Stability Mouse Plasma t1/2
[3] = Stability in Human Plasma; format: in vitro ADME; details: for half-life: read-out: Stability Human Plasma t1/2
S. aureus = test: MIC susceptibility testing (modified NCCLS); format: cell-based; details: Staphylococcus aureus
Description: (§1) The NCCLS (National Committee for Clinical Laboratory Standards), method to determine MIC's of antimicrobial compounds is modified for high-throughput screening. All stocks of tested compounds are prepared in either water or in DMSO depending on solubility. At the highest concentration, DMSO content should not exceed 0.5%. Briefly, twenty 2-fold serial dilutions of test compounds from the highest concentration is made in a 384-well microtiter plate. Each well is inoculated with testing bacteria in broth to a final concentration of approximately 1-1.5×10^6 cells/ml. Bacterial growth is determined by the increase of optical density at 600 nm using a microplate reader (Tecan SpectraFluor Plus).

P. aeruginosa = test: MIC susceptibility testing (modified NCCLS); format: cell-based; details: Pseudomonas aeruginosa, ATCC27853; Table 6, P. aeruginosa ATCC 27853; read-out: MIC
Description: as §1, with “Each well is inoculated with testing bacteria in broth to a final concentration of approximately 1-1.5×10^6 cells/ml.” left out

E. coli = test: MIC susceptibility testing (modified NCCLS); format: cell-based; details: Escherichia coli, ATCC25922; Table 6, E. coli ATCC 25922; read-out: MIC
Description: as §1

E. faecalis = test: MIC susceptibility testing (modified NCCLS); format: cell-based; details: Enterococcus faecalis, ATCC29212; Table 6, E. faecalis ATCC 29212; read-out: MIC
Description: as §1

PDF = PDF (Escherichia coli, UniProt P0A6K3); details: Wei et al. (2000); read-out: Ki (competitive PDF inhibitor); cited from earlier work
Chain of PDF (P0A6K3 whole entry): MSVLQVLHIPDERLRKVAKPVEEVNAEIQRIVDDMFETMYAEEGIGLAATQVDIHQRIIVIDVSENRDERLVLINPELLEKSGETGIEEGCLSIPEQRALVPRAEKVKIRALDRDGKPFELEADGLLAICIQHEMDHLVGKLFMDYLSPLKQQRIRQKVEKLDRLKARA

| SMILES | half-life (Stability in PBS, pH 7.4) | half-life [1] | Stability Mouse Plasma % left after 10 min [2] | half-life [2] | Stability PBS, pH 7.4 % left after 6 hrs (Stability in PBS, pH 7.4) | half-life [3] | Stability Mueller Hinton Broth % left after 6 hrs [1] | also measured |
| --- | --- | --- | --- | --- | --- | --- | --- | --- |
| Oc1cc(Cl)ccc1Oc1ccc(Cl)cc1Cl [Triclosan, triclosan, reference compound] |  |  |  |  |  |  |  | MIC (S. aureus; ATCC 11632 / MSSA): 1.95 ng/mL (≈ 0.00675 µM); MIC (S. aureus; ATCC 13301 / MSSA): 0.488 ng/mL (≈ 0.00169 µM); MIC (S. aureus; ATCC 14154 / MSSA): 1.95 ng/mL (≈ 0.00675 µM); MIC (S. aureus; ATCC 33591 / MSSA): 7.81 ng/mL (≈ 0.027 µM); MIC (S. aureus; ATCC 33592 / MSSA): 3.91 ng/mL (≈ 0.0135 µM); MIC (S. aureus; ATCC 33593 / MSSA): 0.977 ng/mL (≈ 0.00337 µM); MIC (S. aureus; ATCC 43300 / MSSA): 1.95 ng/mL (≈ 0.00675 µM); MIC (S. aureus; ATCC 700260 / MSSA): 0.244 ng/mL (≈ 0.000843 µM); MIC (S. aureus; ATCC 700698 / MSSA): 3.91 ng/mL (≈ 0.0135 µM); MIC (S. aureus; ATCC 700699 / MSSA): ≥ 4000 ng/mL; MIC (S. aureus; ATCC 700787 / MSSA): 1.95 ng/mL (≈ 0.00675 µM); MIC (S. aureus; ATCC 700788 / MSSA): 31.2 ng/mL (≈ 0.108 µM); MIC (S. aureus; ATCC 700789 / MSSA): 15.6 ng/mL (≈ 0.054 µM) |
| CCn1cc(C(=O)O)c(=O)c2cc(F)c(N3CCNCC3)cc21 [Norfloxacin, norfloxacin, reference compound] |  |  |  |  |  |  |  | MIC (P. aeruginosa): 500 ng/mL (≈ 1.57 µM); MIC (S. aureus; ATCC29213, Table 6, S. aureus (MS) ATCC 29213, read-out: MIC): 500 ng/mL (≈ 1.57 µM); MIC (S. aureus; ATCC33591, Table 6, S. aureus (MR) ATCC 33591, read-out: MIC): 1000 ng/mL (≈ 3.13 µM); MIC (E. coli): 15.6 ng/mL (≈ 0.0489 µM); MIC (E. faecalis): 1000 ng/mL (≈ 3.13 µM) |
| CCCCC(CS)C(=O)NC(CCCNC(=N)N)C(=O)Nc1ccc2ccccc2c1 (centres unmarked) [optimal inhibitor] |  |  |  |  |  |  |  | pKi (PDF): 7.82 |

More lines, main results first:

| half-life (Stability in PBS, pH 7.4) | half-life [1] | Stability Mouse Plasma % left after 10 min [2] | half-life [2] | Stability PBS, pH 7.4 % left after 6 hrs (Stability in PBS, pH 7.4) | half-life [3] | Stability Mueller Hinton Broth % left after 6 hrs [1] | SMILES | also measured |
| --- | --- | --- | --- | --- | --- | --- | --- | --- |
| 3.3 h | 2.9 h |  |  |  |  |  | CSCCC(NC=O)C(=O)NC(CC(C)C)C(=O)Oc1c(Br)cc(CO)cc1Br (centres unmarked) [NB3144, 2-(2-formylamino-4-methylsulfanyl-butyrylamino)-4-methyl-pentanoic Acid 2,6-dibromo-hydroxymethyl-phenyl Ester] |  |
| > 12 h | > 12 h | 94% | > 0.333 h | 85% | > 2 h | 95% | CSCCC(NC=O)C(=O)NC(CC(C)C)C(=O)Oc1c(C)cc(CO)cc1C (centres unmarked) [NB3165, 2-(2-formylamino-4-methylsulfanyl-butyrylamino)-4-methyl-pentanoic Acid 4-hydroxymethyl-2,6-dimethyl-phenyl Ester] | Stability Human Plasma % left after 120 min [3]: 94% |
| > 12 h | > 12 h | 88% | > 0.333 h | 95% | 0.533 h | 89% | CSCCC(NC=O)C(=O)NC(CC(C)C)C(=O)Oc1c(Br)cc(CO)cc1-c1ccco1 (centres unmarked) [NB3177, 2-(2-Formylamino-4-methylsulfanyl-butyrylamino)-4-methyl-pentanoic Acid 2-bromo-6furan-2-yl-4-hydroxymethyl-phenyl Ester] |  |
| > 12 h | > 12 h |  | 0.148 h | 98% | 0.177 h | 91% | COc1cc(CO)cc(Br)c1OC(=O)C(CC(C)C)NC(=O)C(CCSC)NC=O (centres unmarked) [NB3162, 2-(2-formylamino-4-methylsulfanyl-butyrylamino)-4-methyl-pentanoic Acid 2-bromo-4-hydroxymethyl-6-methoxy-phenyl Ester] |  |
| > 12 h | > 12 h | 94% | > 0.333 h | 99% | > 2 h | 99% | CSCCC(NC=O)C(=O)NC(CC(C)C)C(=O)Oc1c(-c2ccccc2)cc(CO)cc1-c1ccccc1 (centres unmarked) [NB3145, 2-(2-formylamino-4-methylsulfanyl-butyrylamino)-4-methyl-pentanoic Acid 5′-hydroxymethyl-[1,1′;3′,1″]terphenyl-2′-yl Ester] | Stability Human Plasma % left after 120 min [3]: 94% |
